One assay deals with RENCA cells. Put plainly: Intratumoral transfer of luciferase plasmid pTG11236 with HPC into RENCA tumors, luciferase measurement. It is filed as in vivo. The note with it: RENCA tumors in B6D2 mice; 50 μl intratumoral, 0.4, 2 or 10 μg plasmid pTG11236 with 2 mg/ml HPC; 24 hours after last injection; compared with no HPC. The protocol:
(§1) FIG. 1: show the effect of hexadecylphosphocholine (HPC) on intratumoral transfer of the luciferase-plasmid (pTG11236) into RENCA cells. Bars are means of RLU per minute per mg protein. Luciferase activity was measured 24 hours after the last injection of 50 μl of a composition, comprising between 0.4, 2 or 10 μg of plasmid and 2 mg/ml of HPC, into B6D2 mice. Plasmid DNA (pTG11236: CMV promoter, β-globin intron, luciferase cassette, 5739 base pairs) was prepared according to Bischoff et al., Analytical Biochemistry 254 (1997), 69-81. RENCA or P815 cells were injected under the skin of 6 to 8 week old B6D2 female mice (3 10^5 cells/animal). Eleven days after the injection of the cells, palpable tumours appear. Prior to intratumoral injection HPC was mixed with the plasmid DNA preparation Then, various quantities of plasmid and HPC were directly injected into the tumor three times (with three day-time interval between subsequent injection). Twenty four hours after injection of the composition, the mice were killed and the tumors were retrieved and frozen. Luciferase activity was quantified on whole tumor extracts using a conventional measurement kit (Luciferase Assay System, Promega). […] Luciferase activity was expressed as number of RLU emitted per minute, per mg of protein. Protein was measured on 10 μl samples using a VCA Protein Assay kit (Pierce).

A further assay has as its system P815 cells. Put plainly: Intratumoral transfer of luciferase plasmid pTG11236 with HPC into P815 tumors, luciferase measurement. Type of assay: in vivo. To be noted: P815 tumors in B6D2 mice; 50 μl intratumoral, 10 μg plasmid pTG11236 with 0.4 mg/ml HPC; 24 hours after last injection; compared with no HPC. How it is done: as §1, with “FIG. 2:” for “FIG. 1:”, “of HPC” for “of hexadecylphosphocholine (HPC)”, “into P815” for “into RENCA”, “comprising” for “comprising between 0.4, 2 or”, “and 0.4” for “and 2”, “Promega). Briefly, tumors were diluted in 200 μl of reporter lysis buffer (Promega).” for “Promega).”

The text below walks through data of US20050152959A1, “Use of a lysolipid for the preparation of a composition for transfection of a polynucleotide into a cell” (Transgene S. A., priority 2001, published 2005).

`CCCCCCCCCCCCCCCCOP(=O)([O-])OCC[N+](C)(C)C` [HPC, hexadecylphosphocholine]: the “Luciferase activity of the injected tumors (RLU per minute per mg protein)” value with RENCA cells and in the assay on P815 cells was “higher” each time.
